How the values were obtained:
[1] = molecular target: human Orexin type 1 receptors (Homo sapiens (Human), UniProt O43613); experiment: Scintillation Proximity Assay (SPA) binding assay, [3H]SB-674042 displacement, CHO-hOX1 membranes
[2] = molecular target: human Orexin type 2 receptors (Homo sapiens (Human), UniProt O43614); experiment: Scintillation Proximity Assay (SPA) binding assay, [3H]EMPA displacement, HEK-hOX2 membranes
Sequence of human Orexin type 2 receptors (O43614 whole entry): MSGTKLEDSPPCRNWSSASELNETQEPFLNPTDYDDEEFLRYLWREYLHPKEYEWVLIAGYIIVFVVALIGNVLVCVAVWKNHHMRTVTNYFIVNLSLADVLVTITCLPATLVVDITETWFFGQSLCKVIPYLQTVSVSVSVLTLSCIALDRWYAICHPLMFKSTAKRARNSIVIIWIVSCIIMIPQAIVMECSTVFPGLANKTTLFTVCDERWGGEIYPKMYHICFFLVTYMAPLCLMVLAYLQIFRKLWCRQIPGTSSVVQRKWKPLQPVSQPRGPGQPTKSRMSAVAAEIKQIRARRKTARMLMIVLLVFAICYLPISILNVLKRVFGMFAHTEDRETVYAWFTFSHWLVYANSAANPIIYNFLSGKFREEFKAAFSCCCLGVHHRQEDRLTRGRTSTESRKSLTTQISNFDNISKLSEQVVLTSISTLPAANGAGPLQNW

Sequence of human Orexin type 1 receptors (O43613 whole entry): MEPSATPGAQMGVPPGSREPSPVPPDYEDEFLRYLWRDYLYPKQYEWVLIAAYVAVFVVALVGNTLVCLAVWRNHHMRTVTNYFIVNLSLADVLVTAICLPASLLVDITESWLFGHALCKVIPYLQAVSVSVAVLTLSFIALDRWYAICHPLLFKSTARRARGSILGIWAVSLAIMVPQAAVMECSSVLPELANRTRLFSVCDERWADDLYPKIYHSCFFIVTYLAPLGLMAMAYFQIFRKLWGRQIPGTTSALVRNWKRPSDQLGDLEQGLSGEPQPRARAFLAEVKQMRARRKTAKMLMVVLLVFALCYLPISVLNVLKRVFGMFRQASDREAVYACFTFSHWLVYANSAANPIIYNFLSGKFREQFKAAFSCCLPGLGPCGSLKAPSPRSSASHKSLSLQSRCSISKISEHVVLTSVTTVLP

Row | Compound | OX1 pKi (SPA binding) ([1]; Table 2, [3H]SB-674042 2 nM) | OX2 pKi (SPA binding) ([2]; Table 2, [3H]EMPA 2 nM) | OX1 pKi (SPA binding) ([1]; Table 1, [3H]SB-674042 2 nM) | OX2 pKi (SPA binding) ([2]; Table 1, [3H]EMPA 2 nM)
1 | Cc1ccc(-n2ncc(C)n2)c(C(=O)N2C3CC(C3)[C@H](C)C2COc2ccc(F)cc2)n1 (mixture of isomers) [Example 127, trans-3-[(4-fluorophenoxy)methyl]-4-methyl-2-[6-methyl-3-(4-methyl-2H-1,2,3-triazol-2-yl)pyridine-2-carbonyl]-2-azabicyclo[3.1.1]heptane] | 7.91 | 6.1 |  | 
2 | Cc1ccc(-n2nccn2)c(C(=O)N2C3CC(C3)[C@H](C)C2CNc2nc3ccccc3s2)n1 (stereo partly drawn) [Example 150, trans-N-({4-methyl-2-[6-methyl-3-(2H-1,2,3-triazol-2-yl)pyridine-2-carbonyl]-2-azabicyclo[3.1.1]heptan-3-yl}methyl)-1,3-benzothiazol-2-amine] | 7.5 | 6.14 |  | 
3 | Cc1nc(C(=O)N2C3CC(C3)[C@@H](C)C2CNc2nc3ccc(F)cc3s2)c(-c2ncccn2)s1 (single isomer, unassigned) [Example 164, 6-fluoro-N-({(3R,4S) or (3S,4R)4-methyl-2-[2-methyl-5-(pyrimidin-2-yl)-1,3-thiazole-4-carbonyl]-2-azabicyclo[3.1.1]heptan-3-yl}methyl)-1,3-benzothiazol-2-amine] | 8.93 | 5.68 |  | 
4 | Cc1ccc(-c2ncc(C(F)(F)F)cn2)c(C(=O)N2C3CC(C3)[C@@H](C)C2COc2ccc(F)cc2)n1 (mixture of isomers) [Example 133, cis-3-[(4-fluorophenoxy)methyl]-4-methyl-2-{6-methyl-3-[5-(trifluoromethyl)pyrimidin-2-yl]pyridine-2-carbonyl}-2-azabicyclo[3.1.1]heptane] | 7.25 | 6.79 |  | 
5 | Cc1nc(C(=O)N2C(COc3ccccc3F)CC3CC2C3)c(-c2ccccc2)s1 (stereo not drawn) [Example 45] |  |  | 7.22 | 7.12
6 | Cc1ccc(-c2ncccn2)c(C(=O)N2C3CC(C3)[C@@H](C)C2CNc2cnc(C(F)(F)F)cn2)n1 (mixture of isomers) [Example 248, cis-N-({4-methyl-2-[6-methyl-3-(pyrimidin-2-yl)pyridine-2-carbonyl]-2-azabicyclo[3.1.1]heptan-3-yl}methyl)-5-(trifluoromethyl)pyrazin-2-amine] | 7.76 | 4.58 |  | 
7 | Cc1nc(C(=O)N2C(CNc3cc4ccccc4cn3)CC3CC2C3)c(-c2ccccc2)s1 (stereo not drawn) [Example 59, N-[[2-(2-methyl-5-phenyl-1,3-thiazole-4-carbonyl)-2-azabicyclo[3.1.1]heptan-3-yl]methyl}isoquinolin-3-amine] |  |  | 8.1 | 7.46
8 | C[C@@H]1C2CC(C2)N(C(=O)c2cc(C#N)ccc2-n2nccn2)C1CNc1cnc(C(F)(F)F)cn1 (mixture of isomers) [Example 237, cis-3-[4-methyl-3-({[5-(trifluoromethyl)pyrazin-2-yl]amino}methyl)-2-azabicyclo[3.1.1]heptane-2-carbonyl]-4-(2H-1,2,3-triazol-2-yl)benzonitrile] | 7.33 | 4.82 |  | 
9 | Cc1nc(C(=O)N2C3CC(C3)[C@@H](C)C2COc2ccc(F)cc2)c(-c2cncc(Cl)c2)s1 (mixture of isomers) [Example 139, cis-2-[5-(5-chloropyridin-3-yl)-2-methyl-1,3-thiazole-4-carbonyl]-3-[(4-fluorophenoxy)methyl]-4-methyl-2-azabicyclo[3.1.1]heptane] | 7.85 | 6.18 |  | 
10 | C[C@@H]1C2CC(C2)N(C(=O)c2cc(Cl)ccc2-n2nccn2)C1CNc1ncc(C(F)(F)F)cn1 (stereo partly drawn) [Example 239, cis-N-({2-[5-chloro-2-(2H-1,2,3-triazol-2-yl)benzoyl]-4-methyl-2-azabicyclo[3.1.1]heptan-3-yl}methyl)-5-(trifluoromethyl)pyrimidin-2-amine] | 8.04 | 5.51 |  | 
11 | Cc1ccc(-n2nccn2)c(C(=O)N2C3CC(C3)[C@@H](C)C2CNc2nc3ccccc3o2)n1 (stereo in doubt) [Example 225, cis-N-({4-methyl-2-[6-methyl-3-(2H-1,2,3-triazol-2-yl)pyridine-2-carbonyl]-2-azabicyclo[3.1.1]heptan-3-yl}methyl)-1,3-benzoxazol-2-amine] | 8.32 | 5.22 |  | 
12 | C[C@@H]1C2CC(C2)N(C(=O)c2cc(F)ccc2-n2nccn2)C1CNc1ccc(C(F)(F)F)cn1 (single isomer, unassigned) [Example 192, N-({(3R,4S) or (3S,4R)2-[5-fluoro-2-(2H-1,2,3-triazol-2-yl)benzoyl]-4-methyl-2-azabicyclo[3.1.1]heptan-3-yl}methyl)-5-(trifluoromethyl)pyridin-2-amine] | 8.13 | 5.19 |  | 
13 | Cc1ccc(-n2nccn2)c(C(=O)N2C3CC(C3)[C@H](C)C2COc2ccc(F)cc2)n1 (stereo partly drawn) [Example 103, trans-3-[(4-fluorophenoxy)methyl]-4-methyl-2-[6-methyl-3-(2H-1,2,3-triazol-2-yl)pyridine-2-carbonyl]-2-azabicyclo[3.1.1]heptane] |  |  | 8 | 5.6
14 | Cc1ccc(-n2nccn2)c(C(=O)N2C3CC(C3)[C@@H](C)C2COc2ccc(F)cc2)c1 (stereo partly drawn) [Example 97, cis-3-[(4-fluorophenoxy)methyl]-4-methyl-2-[5-methyl-2-(2H-1,2,3-triazol-2-yl)benzoyl]-2-azabicyclo[3.1.1]heptane] |  |  | 7.74 | 6.51
15 | C[C@@H]1C2CC(C2)N(C(=O)c2cc(F)ccc2-n2nccn2)C1CNc1ccc(C(F)(F)F)cn1 (mixture of isomers) [Example 190, cis-N-({2-[5-fluoro-2-(2H-1,2,3-triazol-2-yl)benzoyl]-4-methyl-2-azabicyclo[3.1.1]heptan-3-yl}methyl)-5-(trifluoromethyl)pyridin-2-amine] | 7.8 | 4.98 |  | 
16 | Cc1ccc(-n2nccn2)c(C(=O)N2C3CC(C3)[C@@H](C)C2CNc2ccc(Cl)cn2)n1 (mixture of isomers) [Example 156, cis-5-chloro-N-({4-methyl-2-[6-methyl-3-(2H-1,2,3-triazol-2-yl)pyridine-2-carbonyl]-2-azabicyclo[3.1.1]heptan-3-yl}methyl)pyridin-2-amine] | 7.53 | 5.35 |  | 
17 | Cc1ccc(-n2nccn2)c(C(=O)N2C3CC(C3)[C@@H](C)C2CNc2cc3ccccc3cn2)n1 (stereo partly drawn) [Example 151, cis-N-({4-methyl-2-[6-methyl-3-(2H-1,2,3-triazol-2-yl)pyridine-2-carbonyl]-2-azabicyclo[3.1.1]heptan-3-yl}methyl)isoquinolin-3-amine] | 7.59 | 5.42 |  | 
18 | C[C@@H]1C2CC(C2)N(C(=O)c2cc(F)ccc2-n2nccn2)C1CNc1nc2cccnc2s1 (mixture of isomers) [Example 228, cis-N-({2-[5-fluoro-2-(2H-1,2,3-triazol-2-yl)benzoyl]-4-methyl-2-azabicyclo[3.1.1]heptan-3-yl}methyl)-[1,3]thiazolo[5,4-b]pyridin-2-amine] | 7.94 | 5.04 |  | 
